The values that follow come from PubChem BioAssay AID248 (DTP/NCI, 2004).

Each structure is given as a SMILES string. Where “and” joins values, the source holds several entries; their conditions need not be identical. Identical values can stand only once. Toxic doses and inconclusive results are not listed.

For the experiment, the system named is L1210 leukemia ip in BDF1 mice, survival T/C. Description: NCI In Vivo Anticancer Drug Screen. Data for tumor model L1210 Leukemia (intraperitoneal) in B6D2F1 (BDF1) mice. The note with it: endpoint: mean survival time, higher = longer survival. A digest of the protocol: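 Tumor was transplanted into mice, which were then dosed with test compound or vehicle alone. Survival was recorded for each group, and the treated figure was expressed relative to the control figure.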

Where [1] appears, read: dose: 100.0 mg/kg/injection, schedule: Q04DX003 (ip), vehicle: saline with Tween-80.

Consider `O=c1[nH]c(=O)n(C2CC(O)C(CO)O2)cc1I` (stereo unspecified), for which the T/C is, setting by setting: (dose: 62.5 mg/kg/injection, schedule: Q#A X Z (ip), vehicle: other) 119 % of control; (dose: 125.0 mg/kg/injection, schedule: Q01DX009 (ip), vehicle: saline) 103 % of control and 113 % of control; (dose: 125.0 mg/kg/injection, schedule: Q01DX010 (ip), vehicle: saline) 114 % of control and 117 % of control; (dose: 125.0 mg/kg/injection, schedule: Q03DX Z (ip), vehicle: other) 119 % of control; (dose: 150.0 mg/kg/injection, schedule: Q01DX009 (ip), vehicle: carboxymethylcellulose (CMC)) 167 % of control; (dose: 150.0 mg/kg/injection, schedule: Q01DX009 (ip), vehicle: saline) 114 % of control. The T/C reads like this: (dose: 178.0 mg/kg/injection, schedule: Q01DX Z (ip), vehicle: other) 124 % of control; (dose: 178.0 mg/kg/injection, schedule: Q01DX Z (ip), vehicle: saline) 112 % of control; (dose: 250.0 mg/kg/injection, schedule: Q01DX001 (ip), vehicle: other) 105 % of control and 108 % of control; (dose: 250.0 mg/kg/injection, schedule: Q01DX009 (ip), vehicle: saline) 111 % of control and 118 % of control; (dose: 250.0 mg/kg/injection, schedule: Q01DX010 (ip), vehicle: saline) 114 % of control; (dose: 250.0 mg/kg/injection, schedule: Q03DX Z (ip), vehicle: other) 104 % of control. The T/C by setting is: (dose: 250.0 mg/kg/injection, schedule: Q07DX Z (ip), vehicle: other) 110 % of control; (dose: 267.0 mg/kg/injection, schedule: Q01DX Z (ip), vehicle: other) 116 % of control; (dose: 267.0 mg/kg/injection, schedule: Q01DX Z (ip), vehicle: saline) 122 % of control; (dose: 300.0 mg/kg/injection, schedule: Q01DX005 (ip), vehicle: carboxymethylcellulose (CMC)) 151 % of control; (dose: 300.0 mg/kg/injection, schedule: Q01DX009 (ip), vehicle: saline) 121 % of control; (dose: 304.0 mg/kg/injection, schedule: Q## X024 (ip), vehicle: carboxymethylcellulose (CMC)) 150 % of control. Moreover, the T/C reads like this: (dose: 400.0 mg/kg/injection, schedule: Q01DX Z (ip), vehicle: other) 113 % of control; (dose: 500.0 mg/kg/injection, schedule: Q01DX001 (ip), vehicle: other) 110 % of control and 113 % of control; (dose: 500.0 mg/kg/injection, schedule: Q01DX009 (ip), vehicle: saline) 116 % of control and 120 % of control; (dose: 500.0 mg/kg/injection, schedule: Q01DX010 (ip), vehicle: saline) 111 % of control and 122 % of control; (dose: 500.0 mg/kg/injection, schedule: Q03DX Z (ip), vehicle: other) 116 % of control; (dose: 500.0 mg/kg/injection, schedule: Q07DX Z (ip), vehicle: other) 113 % of control. The T/C runs as follows: (dose: 500.0 mg/kg/injection, schedule: Q#A X Z (ip), vehicle: other) 152 % of control; (dose: 600.0 mg/kg/injection, schedule: Q01DX005 (ip), vehicle: carboxymethylcellulose (CMC)) 107 % of control; (dose: 600.0 mg/kg/injection, schedule: Q01DX009 (ip), vehicle: carboxymethylcellulose (CMC)) 92 % of control; (dose: 600.0 mg/kg/injection, schedule: Q## X002 (ip), vehicle: carboxymethylcellulose (CMC)) 158 % of control; (dose: 600.0 mg/kg/injection, schedule: Q## X003 (ip), vehicle: carboxymethylcellulose (CMC)) 170 % of control; (dose: 600.0 mg/kg/injection, schedule: Q## X016 (ip), vehicle: carboxymethylcellulose (CMC)) 158 % of control. The T/C is, setting by setting: (dose: 600.0 mg/kg/injection, schedule: Q## X024 (ip), vehicle: carboxymethylcellulose (CMC)) 182 % of control; (dose: 900.0 mg/kg/injection, schedule: Q01DX Z (ip), vehicle: saline) 164 % of control; (dose: 1000.0 mg/kg/injection, schedule: Q01DX001 (ip), vehicle: other) 110 % of control and 116 % of control; (dose: 1000.0 mg/kg/injection, schedule: Q01DX009 (ip), vehicle: saline) 111 % of control and 117 % of control; (dose: 1000.0 mg/kg/injection, schedule: Q01DX010 (ip), vehicle: saline) 111 % of control and 124 % of control; (dose: 1000.0 mg/kg/injection, schedule: Q03DX Z (ip), vehicle: other) 117 % of control. Further, the T/C runs as follows: (dose: 1000.0 mg/kg/injection, schedule: Q07DX Z (ip), vehicle: other) 105 % of control; (dose: 1200.0 mg/kg/injection, schedule: Q01DX001 (ip), vehicle: carboxymethylcellulose (CMC)) 161 % of control; (dose: 1200.0 mg/kg/injection, schedule: Q## X002 (ip), vehicle: carboxymethylcellulose (CMC)) 187 % of control; (dose: 1200.0 mg/kg/injection, schedule: Q## X003 (ip), vehicle: carboxymethylcellulose (CMC)) 211 % of control; (dose: 1200.0 mg/kg/injection, schedule: Q## X008 (ip), vehicle: carboxymethylcellulose (CMC)) 157 % of control; (dose: 1200.0 mg/kg/injection, schedule: Q## X016 (ip), vehicle: carboxymethylcellulose (CMC)) 167 % of control. Moreover, the T/C by setting is: (dose: 1200.0 mg/kg/injection, schedule: Q## X024 (ip), vehicle: carboxymethylcellulose (CMC)) 160 % of control; (dose: 2000.0 mg/kg/injection, schedule: Q01DX010 (ip), vehicle: saline) 119 % of control; (dose: 2400.0 mg/kg/injection, schedule: Q01DX001 (ip), vehicle: carboxymethylcellulose (CMC)) 175 % of control; (dose: 2400.0 mg/kg/injection, schedule: Q## X002 (ip), vehicle: carboxymethylcellulose (CMC)) 161 % of control; (dose: 2400.0 mg/kg/injection, schedule: Q## X003 (ip), vehicle: carboxymethylcellulose (CMC)) 101 % of control; (dose: 2400.0 mg/kg/injection, schedule: Q## X008 (ip), vehicle: carboxymethylcellulose (CMC)) 188 % of control. The T/C (dose: 2400.0 mg/kg/injection, schedule: Q## X016 (ip), vehicle: carboxymethylcellulose (CMC)) is 232 % of control.
Consider `CC(=O)OCC1OC(Oc2c(Br)cc(Br)cc2Br)C(OC(C)=O)C(OC(C)=O)C1OC(C)=O` (stereo unspecified), for which the T/C by setting is: under setting [1], 96 % of control; (dose: 200.0 mg/kg/injection, schedule: Q04DX003 (ip), vehicle: saline with Tween-80) 101 % of control; (dose: 400.0 mg/kg/injection, schedule: Q04DX003 (ip), vehicle: saline with Tween-80) 95 % of control.
`CN(C)C1c2cc(Cl)ccc2-c2c(N)cc(Cl)cc21` (stereo unspecified): the T/C by setting is: (dose: 50.0 mg/kg/injection, schedule: Q01DX001 (ip), vehicle: carboxymethylcellulose (CMC)) 95 % of control; (dose: 100.0 mg/kg/injection, schedule: Q01DX001 (ip), vehicle: carboxymethylcellulose (CMC)) 98 % of control; (dose: 200.0 mg/kg/injection, schedule: Q01DX001 (ip), vehicle: carboxymethylcellulose (CMC)) 98 % of control; (dose: 400.0 mg/kg/injection, schedule: Q01DX001 (ip), vehicle: carboxymethylcellulose (CMC)) 93 % of control.
As to `O=C(N/N=C/c1ccc([N+](=O)[O-])s1)c1ccccc1O`, the T/C runs as follows: (dose: 100.0 mg/kg/injection, schedule: Q04DX003 (ip), vehicle: saline) 94 % of control; (dose: 200.0 mg/kg/injection, schedule: Q04DX003 (ip), vehicle: saline) 100 % of control; (dose: 400.0 mg/kg/injection, schedule: Q04DX003 (ip), vehicle: saline) 97 % of control.
As to `OCC1(c2ccccc2)CCN(Cc2ccccc2)CC1`, the T/C is 91 % of control (dose: 100.0 mg/kg/injection, schedule: Q01DX009 (ip), vehicle: Klucel (hydroxypropylcellulose) (HPC)); 104 % of control (dose: 100.0 mg/kg/injection, schedule: Q04DX003 (ip), vehicle: Klucel (hydroxypropylcellulose) (HPC)); 96 % of control (dose: 200.0 mg/kg/injection, schedule: Q01DX009 (ip), vehicle: Klucel (hydroxypropylcellulose) (HPC)); 101 % of control (dose: 200.0 mg/kg/injection, schedule: Q04DX003 (ip), vehicle: Klucel (hydroxypropylcellulose) (HPC)); 91 % of control (dose: 400.0 mg/kg/injection, schedule: Q01DX009 (ip), vehicle: Klucel (hydroxypropylcellulose) (HPC)); 97 % of control (dose: 400.0 mg/kg/injection, schedule: Q04DX003 (ip), vehicle: Klucel (hydroxypropylcellulose) (HPC)).
In the case of `O=C1c2cc(Br)ccc2-c2c(N=Cc3ccc4c(c3)OCO4)cc(Br)cc21`, the T/C reads like this: (dose: 100.0 mg/kg/injection, schedule: Q01DX001 (ip), vehicle: other) 95 % of control; (dose: 200.0 mg/kg/injection, schedule: Q01DX001 (ip), vehicle: other) 103 % of control; (dose: 400.0 mg/kg/injection, schedule: Q01DX001 (ip), vehicle: other) 106 % of control.
With `CC(C)Cc1ccc(OC(=O)Nc2ccc(Cl)cc2)cc1`, the T/C is, setting by setting: (dose: 25.0 mg/kg/injection, schedule: Q04DX003 (ip), vehicle: saline with Tween-80) 95 % of control; (dose: 50.0 mg/kg/injection, schedule: Q04DX003 (ip), vehicle: saline with Tween-80) 95 % of control; under setting [1], 95 % of control.
